Assay results published in article PMC8740726 (Proceedings of the National Academy of Sciences of the …, 2021).

Columns and labels:
[1] = molecular target: T1, DPS (deoxypodophyllotoxin synthase) (Sinopodophyllum hexandrum, UniProt A0A0N9HQ36); details: co-substrate; Fe bound, bidentate, offline mode; pH 8.5
[2] = molecular target: T1, DPS (deoxypodophyllotoxin synthase); details: coproduct at Fe active site, with Fe and (±)-yatein; pH 7.5

T1 sequence (A0A0N9HQ36 whole entry): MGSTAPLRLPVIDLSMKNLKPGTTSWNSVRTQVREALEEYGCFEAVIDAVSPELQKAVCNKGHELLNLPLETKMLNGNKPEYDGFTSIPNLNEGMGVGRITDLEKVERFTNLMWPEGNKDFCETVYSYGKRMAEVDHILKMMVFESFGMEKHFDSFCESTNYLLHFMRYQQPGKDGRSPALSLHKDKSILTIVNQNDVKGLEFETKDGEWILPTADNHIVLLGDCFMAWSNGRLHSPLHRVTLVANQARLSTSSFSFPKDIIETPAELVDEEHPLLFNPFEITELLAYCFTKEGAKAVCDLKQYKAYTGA

Row | Compound | X-ray crystal structure, 2.09 A [1] | X-ray crystal structure, 2.05 A [2]
1 | O=C(O)CCC(=O)C(=O)O [2OG] | Overall structure of the DPS•Fe•2OG ternary complex (Protein Data Bank identification: 7E37) | 
2 | O=C(O)CCC(=O)O [succinate] |  | The substrate (−)-6a and the coproduct succinate are shown in stick representation
